SMILES strings stand for the structures.

Test [1] has as its target T1, FASN Keto-reductase Domain (Homo sapiens, UniProt P49327).
T1 construct: 10 μL hFASN enzyme (full length, 300 ng, purified in house) and 360 μM NADPH; made in house
The test is described as follows: Fatty Acid Synthase Keto-Reductase Domain (FASN KR) Inhibition. Format: biochemical. Conditions: mean where tested more than once; read-out: FASN K-R Domain pIC50 (converted). An outline of the steps:
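Full-length human FASN (300 ng) in 100 mM KH2PO4 pH 7.5 with 360 μM NADPH and 180 mM ethyl acetoacetate (stock); A340 decrease read over 20 min at room temperature.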

The subject of a further test is A2780 ovarian cells. The test is described as follows: A2780 Ovarian Cell Proliferation Assay in Lipid Reduced Medium, without Palmitate. Format: cell-based. As to conditions: Homo sapiens, A2780; lipid reduced medium, without palmitate, 96 h, MTT; read-out: Proliferation A2780 w/o Palmitate pIC50 (converted). In a few lines:
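A2780 cells were seeded in 10% FCS medium and switched next day to 10% lipid-reduced serum without palmitate. Compounds at 0.01–30 μM were added with 0.2% DMSO, 0.2% fatty-acid-free BSA and 0.25% ethanol final. After 96 h, MTT absorbance at 544 nm was normalized to plate controls, and IC50/pIC50 came from a 4-parameter logistic fit.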

The subject of test [2] is LNCaP_Vancouver prostate cells. The test is described as follows: In Vitro LNCaP Vancouver Prostate Cell Proliferation Assay in Lipid Reduced Medium. In kind it is cell-based. As to conditions: lipid reduced serum, 96 h, read-out: Vancouver Cells pIC50 (converted). The protocol: LNCaP_Vancouver prostate cells were obtained from the Vancouver Prostate Cancer Centre. Cells were maintained in RPMI-1640, 10% Fetal Calf Serum (FCS, Hyclone), 2 mM glutamine and 50 μg/ml Gentamicin.
For the proliferation experiment 1500 LNCaP_Vancouver cells per well were seeded in a 384-well black with clear bottom plate (costar 3712BC) in 40 μl RPMI-1640, 10% Lipid reduced serum (LRS, Hyclone), 50 μg/ml Gentamicin and 2 mM Glutamine and incubated at 37° C., 5% CO2. The next day 10 μl of test compound/DMSO diluted in medium was added (3E-5M, 1E-5M, 3E-6M, 1E-6M, 3E-7M, 1E-7M, 3E-8M, 1E-8M final concentration). Compounds were tested in duplicate. After 96 h incubation at 37° C., 5% CO2 25 μl ATP-glow mix was added. The plate was incubated for 30 min at 37° C. and luminescence was measured with the Envision.
(§1) pIC50 values were calculated as follows. Raw data generated by the instruments were normalized to % Controlmin values, which were calculated as: % Controlmin=100*(x−mLC)/(mHC−mLC),
(§2) where mLC and mHC are the means of the low control wells and high control wells on the plate, after manual exclusion of outliers. The relation between the % Controlmin values and concentration was fitted to a 4-parameter logistic curve using a non-linear least squares regression method to determine the pIC50 value. Outlying data points were excluded manually to get a correct fit. The pIC50 corresponds to −log 10(IC50), if the IC50 is expressed in molar units (http://www.ncbi.nlm.nih.gov/books/NBK91994). The IC50 parameter was always determined by non-linear regression, but one or more of the other parameters may have been held fixed on a relevant input value, such as 0 for the bottom values.
(§3) For dose response curves with FASN inhibitors in LNCaP_Vancouver or PC-3M-Luc_C6 cells the curves bottom out around 30 to 40% of the control value. A standard fit PL2, forcing the lower bound to this level was used.
(§4) Representative compounds of the present invention were tested according to the procedure as described in Biological Example 4a and 4b above, with results as listed in Table BIO-4, below.

Test [3] relates to PC-3M-Luc-C6 prostate cells. As to the kind of experiment: In Vitro PC-3M-Luc-C6 Prostate Cell Proliferation Assay in Lipid Reduced Medium. As to conditions: read-out: PC-3M-Luc-C6 Cells pIC50 (μM) (converted), lipid reduced serum, 96 h. Format: cell-based. The protocol:
PC-3M-Luc-C6 prostate cells were obtained from Xenogen Corporation. Cells were maintained in MEM supplemented with 10% Fetal Calf Serum (FCS, Hyclone), 2 mM glutamine, 1 mM sodium pyruvate, 1% BME vitamins (available from for example, Sigma Aldrich), 0.1 mM non Essential Amino Acid and 50 μg/ml Gentamicin. The cells were passaged twice a week.
1000 PC-3M-Luc-C6 prostate cells (Xenogen) were seeded in a 384-well black with clear bottom plate (costar 3712BC) in 40 μl MEM, 10% LRS (Hyclo ne), 50 μg/ml Gentamicin, 2 mM Glutamine, 1 mM Sodium pyruvaat, 1% BME vitamins and 0.1 mM non Essential Amino Acid and incubated at 37° C., 5% CO2. The next day 10 μl test compound/DMSO diluted in medium was added (3E-5M, 1E-5M, 3E-6M, 1E-6M, 3E-7M, 1E-7M, 3E-8M, 1E-8M final concentration). Compounds were tested in duplicate. After 96 h incubation at 37° C., 5% CO2 25 μl ATP-glow mix was added. The plate was incubated for 30 min at 37° C. and luminescence was measured with the Envision.
as §1, §2, §3, §4

T1 sequence (P49327 whole entry, the tested form may be a part): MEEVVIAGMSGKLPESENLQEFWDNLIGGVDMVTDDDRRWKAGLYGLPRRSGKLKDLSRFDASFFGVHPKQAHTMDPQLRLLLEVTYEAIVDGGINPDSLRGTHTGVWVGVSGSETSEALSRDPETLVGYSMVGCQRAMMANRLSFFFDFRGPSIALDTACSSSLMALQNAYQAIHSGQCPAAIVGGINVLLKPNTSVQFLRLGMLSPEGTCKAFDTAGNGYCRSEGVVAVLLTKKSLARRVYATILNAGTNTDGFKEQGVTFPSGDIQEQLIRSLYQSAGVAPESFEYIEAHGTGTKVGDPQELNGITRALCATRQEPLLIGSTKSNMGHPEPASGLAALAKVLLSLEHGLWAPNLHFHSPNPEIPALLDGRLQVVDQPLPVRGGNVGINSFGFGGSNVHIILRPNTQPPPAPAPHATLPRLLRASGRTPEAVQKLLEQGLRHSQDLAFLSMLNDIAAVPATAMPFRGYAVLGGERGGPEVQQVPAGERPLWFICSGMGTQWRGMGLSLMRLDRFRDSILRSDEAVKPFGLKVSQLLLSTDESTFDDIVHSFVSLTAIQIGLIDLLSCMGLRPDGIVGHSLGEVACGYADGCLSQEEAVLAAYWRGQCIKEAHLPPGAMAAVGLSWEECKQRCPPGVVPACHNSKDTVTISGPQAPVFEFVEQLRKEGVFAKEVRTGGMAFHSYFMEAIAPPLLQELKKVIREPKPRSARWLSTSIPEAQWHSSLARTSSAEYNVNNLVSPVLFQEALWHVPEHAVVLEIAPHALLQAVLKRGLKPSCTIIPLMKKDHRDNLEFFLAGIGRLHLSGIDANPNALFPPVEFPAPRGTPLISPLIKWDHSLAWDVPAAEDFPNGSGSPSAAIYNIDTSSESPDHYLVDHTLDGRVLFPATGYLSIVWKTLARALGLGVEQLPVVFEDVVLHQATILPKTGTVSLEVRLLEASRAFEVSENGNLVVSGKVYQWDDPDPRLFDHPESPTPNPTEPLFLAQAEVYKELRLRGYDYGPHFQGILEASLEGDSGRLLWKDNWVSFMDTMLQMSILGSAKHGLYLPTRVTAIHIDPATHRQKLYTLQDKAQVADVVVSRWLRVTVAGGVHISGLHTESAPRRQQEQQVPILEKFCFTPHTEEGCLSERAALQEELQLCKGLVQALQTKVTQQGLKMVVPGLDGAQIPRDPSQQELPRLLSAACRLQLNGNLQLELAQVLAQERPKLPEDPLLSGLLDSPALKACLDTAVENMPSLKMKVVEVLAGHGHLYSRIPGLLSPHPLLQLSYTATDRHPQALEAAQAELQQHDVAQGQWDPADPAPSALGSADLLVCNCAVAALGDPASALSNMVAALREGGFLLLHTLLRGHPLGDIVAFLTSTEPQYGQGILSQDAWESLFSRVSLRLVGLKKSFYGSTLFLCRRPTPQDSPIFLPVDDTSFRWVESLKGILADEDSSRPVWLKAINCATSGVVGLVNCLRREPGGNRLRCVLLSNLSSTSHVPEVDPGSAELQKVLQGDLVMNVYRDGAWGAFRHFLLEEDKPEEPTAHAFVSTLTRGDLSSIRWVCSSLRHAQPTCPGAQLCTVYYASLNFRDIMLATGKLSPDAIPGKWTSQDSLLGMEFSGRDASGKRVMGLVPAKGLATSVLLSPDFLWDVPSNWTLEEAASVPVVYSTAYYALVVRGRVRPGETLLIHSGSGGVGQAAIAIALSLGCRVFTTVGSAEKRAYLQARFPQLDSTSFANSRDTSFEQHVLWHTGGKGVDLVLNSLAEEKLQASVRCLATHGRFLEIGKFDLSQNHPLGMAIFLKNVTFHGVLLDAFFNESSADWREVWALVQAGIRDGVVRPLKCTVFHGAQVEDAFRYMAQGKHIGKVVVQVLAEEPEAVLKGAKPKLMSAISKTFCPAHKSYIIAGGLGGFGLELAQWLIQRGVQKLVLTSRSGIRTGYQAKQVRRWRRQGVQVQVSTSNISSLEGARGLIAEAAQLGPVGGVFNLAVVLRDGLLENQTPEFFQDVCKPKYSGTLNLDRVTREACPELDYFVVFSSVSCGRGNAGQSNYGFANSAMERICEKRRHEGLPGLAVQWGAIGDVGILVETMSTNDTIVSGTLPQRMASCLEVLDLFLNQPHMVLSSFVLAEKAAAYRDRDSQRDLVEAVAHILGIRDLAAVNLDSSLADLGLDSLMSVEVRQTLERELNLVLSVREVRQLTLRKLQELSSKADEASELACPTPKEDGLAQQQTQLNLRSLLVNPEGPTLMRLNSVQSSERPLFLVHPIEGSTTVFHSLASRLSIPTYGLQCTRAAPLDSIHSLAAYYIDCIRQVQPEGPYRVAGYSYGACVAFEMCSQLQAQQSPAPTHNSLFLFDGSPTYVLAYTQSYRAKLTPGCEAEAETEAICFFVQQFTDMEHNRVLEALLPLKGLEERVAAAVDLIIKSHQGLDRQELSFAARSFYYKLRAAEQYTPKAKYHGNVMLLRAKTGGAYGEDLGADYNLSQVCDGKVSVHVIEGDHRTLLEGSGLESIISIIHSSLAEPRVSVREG

Consider `Cc1ccc(C(=O)N2CC(c3ccc(-c4cnn(C)c4)cc3)C2)cc1NC(=O)c1ccc(N(C)C(C)C)nc1` [Compound #78, 6-(isopropyl(methyl)amino)-N-(2-methyl-5-(3-(4-(1-methyl-1H-pyrazol-4-yl)phenyl)azetidine-1-carbonyl)phenyl)nicotinamide], for which the IC50 in test [1] is 25.1 nM; in the test on A2780 ovarian cells it was around 29.5 nM; in test [2] it was around 34.7 nM; in test [3] it was around 0.00871 µM.

Regarding `CNc1ccc(C(=O)N2CCC(c3ccc(-c4cnn(C)c4)cc3)CC2)cc1NC(=O)c1ccc(NC(C)C)nc1` [Compound #279, 6-(isopropylamino)-N-(5-(4-(4-(1-methyl-1H-pyrazol-4-yl)phenyl)piperidine-1-carbonyl)-2-(methylamino)phenyl)nicotinamide], the IC50 was 93.3 nM in test [1], 41.7 nM with A2780 ovarian cells, 263 nM in test [2] and 0.0355 µM in test [3].

Values taken from patent US9562035B2, “Benzamide derivative useful as FASN inhibitors for the treatment of cancer” (Janssen Pharmaceutica NV, priority 2013, dated 2017).
